Results published in ChEMBL document CHEMBL1201862, “PubChem BioAssay data set” (2004).
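Each compound was tested at five concentrations against cells in 96-well plates for 48 hours. GI50 marks 50% less growth.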 Active and inactive are the calls of the source. Cut-off read from the data, not from the text of the source: active = GI50 up to about 1.1 µM and inactive = higher. Non-standard residues stand in square brackets, D forms with d. Residues, ends and D or L forms follow the SMILES beside them. *: point of attachment. hSer = N[CH](CCO)C(=O)O; Boc = CC(C)(C)OC(=O)*

Assays:
Test in all cases: NCI-60 cell line screen, 48 h
SNB-78 = tested on: SNB-78
CCRF-CEM = tested on: CCRF-CEM
SN12C = tested on: SN12C
NCI-H460 = tested on: NCI-H460
UO-31 = tested on: UO-31
OVCAR-8 = tested on: OVCAR-8
SK-MEL-28 = tested on: SK-MEL-28
NCI-H226 = tested on: NCI-H226
HL-60 = tested on: HL-60
M14 = tested on: M14
SK-MEL-5 = tested on: SK-MEL-5
A549 = tested on: A549
PC-3 = tested on: PC-3
BT-549 = tested on: BT-549
MDA-MB-435 = tested on: MDA-MB-435
Hs-578T = tested on: Hs-578T
MDA-MB-231 = tested on: MDA-MB-231
CAKI-1 = tested on: CAKI-1
RXF 393 = tested on: RXF 393
MDA-N = tested on: MDA-N

Row | SMILES | GI50 (SNB-78) | GI50 (CCRF-CEM) | GI50 (SN12C) | GI50 (NCI-H460) | GI50 (UO-31) | GI50 (OVCAR-8) | GI50 (SK-MEL-28) | GI50 (NCI-H226) | GI50 (HL-60) | GI50 (M14) | GI50 (SK-MEL-5) | GI50 (A549) | GI50 (PC-3) | GI50 (BT-549) | GI50 (MDA-MB-435) | GI50 (Hs-578T) | GI50 (MDA-MB-231) | GI50 (CAKI-1) | GI50 (RXF 393) | GI50 (MDA-N)
1 | CC1(O)CC2C(CC1SC1CC3C(CC1(C)O)C3(C)C)C2(C)C (stereo unspecified) | 73.3 µM (inactive) | 27 µM (inactive) | 36.1 µM (inactive) | 30.7 µM (inactive) | 24 µM (inactive) | 41.9 µM (inactive) | > 100 µM (inactive) | 65.6 µM (inactive) | 22.9 µM (inactive) | 48.2 µM (inactive) | 11.6 µM (inactive) | 50.8 µM (inactive) | – | – | – | – | – | – | – | –
2 | COc1cc(C2SC(=N)Nc3c2c(C)nn3C(=O)c2ccccc2O)ccc1O (stereo unspecified) | – | 2.01 µM (inactive) | > 2.64 µM (inactive) | 0.317 µM (active) | 9.31 µM (inactive) | > 2.33 µM (inactive) | > 10 µM (inactive) | > 2.25 µM (inactive) | > 2.32 µM (inactive) | > 2.85 µM (inactive) | 2.75 µM (inactive) | 1.36 µM (inactive) | > 4.03 µM (inactive) | > 2.63 µM (inactive) | 1.54 µM (inactive) | 0.461 µM (active) | > 3.98 µM (inactive) | > 2.42 µM (inactive) | 1.52 µM (inactive) | 1.75 µM (inactive)
3 | CC1(C)CCC2=C(O1)/C(=N\Nc1ccccc1)c1ccccc1C2=O | – | 56.1 µM (inactive) | 20.3 µM (inactive) | 23.2 µM (inactive) | 17.8 µM (inactive) | 36.2 µM (inactive) | 59.6 µM (inactive) | 39.9 µM (inactive) | 35.8 µM (inactive) | 31.5 µM (inactive) | 32.1 µM (inactive) | 27.2 µM (inactive) | 24.1 µM (inactive) | 35.4 µM (inactive) | 30.8 µM (inactive) | 35.6 µM (inactive) | 25.4 µM (inactive) | 24 µM (inactive) | 16.6 µM (inactive) | 16.1 µM (inactive)
4 | COc1ccc2nc3cc(Cl)ccc3c(NCCNCCCNC(=O)c3cc(-c4ccccc4)nc4ccccc34)c2c1 | – | > 100 µM (inactive) | > 100 µM (inactive) | > 100 µM (inactive) | > 100 µM (inactive) | > 100 µM (inactive) | > 100 µM (inactive) | > 100 µM (inactive) | 31.3 µM (inactive) | > 100 µM (inactive) | 67 µM (inactive) | > 100 µM (inactive) | 56.6 µM (inactive) | > 100 µM (inactive) | 30.1 µM (inactive) | > 100 µM (inactive) | > 100 µM (inactive) | > 100 µM (inactive) | > 100 µM (inactive) | 28.6 µM (inactive)
5 | C=CCN(C(=O)OC(C)(C)C)C1=CC2C(C)=CN(S(=O)(=O)c3ccccc3)C2C(OCc2ccccc2)=C1 (stereo unspecified) | – | > 100 µM (inactive) | > 100 µM (inactive) | > 100 µM (inactive) | > 100 µM (inactive) | > 100 µM (inactive) | > 100 µM (inactive) | > 100 µM (inactive) | > 100 µM (inactive) | > 100 µM (inactive) | > 100 µM (inactive) | > 100 µM (inactive) | > 100 µM (inactive) | > 100 µM (inactive) | > 100 µM (inactive) | > 100 µM (inactive) | > 100 µM (inactive) | > 100 µM (inactive) | 36.1 µM (inactive) | > 100 µM (inactive)
6 | O=[N+]([O-])c1cccc(/N=N/c2c(O)c(S(=O)(=O)O)cc3cc(S(=O)(=O)O)ccc23)c1 | – | > 100 µM (inactive) | > 100 µM (inactive) | > 100 µM (inactive) | > 100 µM (inactive) | > 100 µM (inactive) | > 100 µM (inactive) | > 100 µM (inactive) | > 100 µM (inactive) | > 100 µM (inactive) | > 100 µM (inactive) | > 100 µM (inactive) | > 100 µM (inactive) | > 100 µM (inactive) | > 100 µM (inactive) | > 100 µM (inactive) | > 100 µM (inactive) | > 100 µM (inactive) | > 100 µM (inactive) | > 100 µM (inactive)
7 | COCCC(NC(=O)C(CC(C)C)NC(=O)OC(C)(C)C)C(N)=O (stereo not drawn) (Boc-Leu-[hSer](Me)-NH2; configuration not given here) | – | > 100 µM (inactive) | > 100 µM (inactive) | > 100 µM (inactive) | > 100 µM (inactive) | > 100 µM (inactive) | > 100 µM (inactive) | > 100 µM (inactive) | > 100 µM (inactive) | > 100 µM (inactive) | > 100 µM (inactive) | > 100 µM (inactive) | > 100 µM (inactive) | > 100 µM (inactive) | > 100 µM (inactive) | > 100 µM (inactive) | > 100 µM (inactive) | > 100 µM (inactive) | > 100 µM (inactive) | > 100 µM (inactive)
